The test has as its system post PTCA vessels. Put plainly: Clinical test: restenosis after elective PTCA in patients with angina pectoris (coronary angiography, video-densitometry). It is filed as in vivo. How it is done: 29 patients suffering from angina pectoris who received elective PTCA (43 sites ) orally took 2-phenyl-1,2-benzoisoselenazol-3(2H )-one (hereinafterreferred to as compound A) after meal with a daily dose of 200 mg, twice a day, 100 mg for each time, starting from three days prior to the PTCA operation over 3 months after operation (treated group ). […] The stenosed degree was measured by video-densitometry (Reiber JHC et al., Circulation 1985; 71:280-288), and inhibition of restenosis was evaluated on the basis of the findings. […]
In both of the treated and control groups, calcium antagonists such as nifedipine and diltiazem, and antiarteriosclerotic agents such as elastase were concurrently administered as required. As a result, there was no significant difference according to the .chi.^2 test between the two groups with regard to the use of concomitant compounds and other patient characteristics including the age, the site of the lesion, etc.

The text below walks through data of patent US5480888A, “Inhibitor for restenosis after percutaneous coronary arterioplasty” (Daiichi Pharmaceutical Co., Ltd., priority 1992, dated 1996).

Turning to `O=c1c2ccccc2[se]n1-c1ccccc1` [compound A, 2-phenyl-1,2-benzoisoselenazol-3(2H)-one], the “onset rate of restenosis based on the number of patients” value (6 months after operation, treated group, 29 patients, control 38.2%) is 18.6%. Moreover, the “inhibition of restenosis in the location of operation” value (compared to the control group, Table 2) is “remarkable inhibition of restenosis”. Moreover, where the note is “treated group, 43 sites, 100 mg twice a day orally from three days prior to PTCA, control 87 +/- 11”, the “Stenosed Degree Before PTCA” value was 89 +/- 10. Besides, the “Stenosed Degree 3 Months after PTCA” value (treated group, 43 sites, 100 mg twice a day orally, control 78 +/- 39, *P<0.05 vs Placebo, Chi square analysis) was 54 +/- 31. Further, under “treated group, 43 sites, immediately after PTCA, 100 mg twice a day orally, control 32 +/- 23”, the “Stenosed Degree After PTCA” value is recorded as 35 +/- 28.
